Experiments:
[1] = Thermodynamic aqueous solubility assay in PBS; details: for Thermodynamic solubility: room temperature, PBS buffer pH 7.4, duplicate
Protocol: Alternatively, aqueous solubility was determined by a thermodynamic solubility assay as follows. 2.5 mg of test compound was weighed in a glass vial, 0.5 mL of phosphate buffered saline (pH=7.4) was added and the sample briefly vortexed. Samples were then incubated overnight at room temperature on a vial roller system to dissolve as much of the compound as possible into solution. Following incubation, the aqueous solutions were filtered in duplicate ([…]) and the filtrate diluted 1:1 with 100% methanol. Samples were further diluted where necessary and analyzed by HPLC. The concentration of compound in solution was determined by comparison to a standard curve made with authentic analytical standards.

[2] = Chemical stability under acidic, alkaline, oxidative and heat stress (HPLC); details: for % of substrate remaining in solution: HPLC, relative to control at 30° C. pH 7.0; for percent remaining after 24 h exposure relative to a control at ambient conditions: alkaline conditions (NaOH, final pH 12.5); for release of CBD aglycone (stability of the glucoside bond): any condition (acidic, alkaline, oxidative, heat)
Protocol: Alternatively, chemical stability of cannabinoid glycosides was determined under alkaline, acidic, oxidative and heat stress as follows. 25 mM stock solutions of cannabinoids and cannabinoid glycosides were prepared in 100% methanol. 15 μL is mixed with 5 μL of 400 mM HCl solution (final pH=1.1), 400 mM NaOH solution (Final pH=12.5), 12% H2O2 solution (final concentration 3%), or H2O pH 7.0. […] A control under ambient conditions was also prepared where 15 μL of the cannabinoid or cannabinoid glycoside was added to 5 μL H2O pH 7.0 and incubated at 30° C. After 24 h samples were placed on ice and 60 μL of ice-cold 100% methanol is added to each sample. Samples were centrifuged and transferred to HPLC vials for analysis. The remaining concentration of cannabinoid or cannabinoid glycoside was quantified by comparing to authentic analytical standards. Determining the presence of degradation products were determined by comparing with authentic analytical standards.
CBD, CBD-1′-O-β-D-glucoside (OB1), and CBD-1′-O-β-D-glucosyl-3′-O-β-D-glucoside (OB6) were exposed to oxidative, alkaline, acidic and heat conditions as described above, and their degradation quantified by HPLC analysis by measuring the amount of compound remaining in solution after 24 h exposure to a given condition and expressed as percent (%) remaining after 24 h exposure relative to a control at ambient conditions. Also measured was the accumulation of the known CBD degradation product THC, expressed as percent accumulated after 24 h exposure.

[3] = Hepatic microsomal stability; details: for t1/2 / CLint: human liver microsomes 0.5 mg/mL, 1 μM compound, NADPH and UDP-glucuronic acid
Protocol: Hepatic microsomal stability of cannabinoid glycosides were determined by incubating 2 μM of molecule with HepaRG™ human liver microsomes (Sigma) supplemented with NADPH at 37° C. Samples were taken at 0, 5, 15, 30, 45, and 60 minute intervals and analyzed as described above. Verapamil (rapid clearance) and Diazepam (low clearance) were used as references.
Alternatively, hepatic microsomal stability of cannabinoid glycosides was determined as follows. HepaRG™ pooled human liver microsomes (Sigma) (final protein concentration=0.5 mg/mL) were mixed with alamethicin (25 μg/mg), 0.1 M phosphate buffer (pH=7.4) and the test compound (1 μM final in DMSO) and incubated at 37° C. prior to addition of NADPH (final concentration 1 mM) and UDP-glucuronic acid (final concentration 1 mM) to initiate the reaction. The compound was incubated for 0, 5, 15, 30, and 45 minutes and the reaction terminated by adding acetonitrile in a 1:3 ratio (v/v). Reactions were centrifuged at 3000 rpm for 20 min at 4° C. to precipitate the protein. Following protein precipitation, internal standards were added to the sample supernatants and analyzed by LC-MS to measure the concentration of compound remaining at each time point, quantification was achieved by comparison to authentic analytical standards.
In vitro hepatic microsomal stability was performed for CBD, CBD-1′-O-β-D-glucoside (OB1), and CBD-1′-O-β-D-glucosyl-3′-O-β-D-glucoside (OB6) as described above and the intrinsic clearance (CLint) and half-life (t1/2) of each compound was determined.

For `C=C(C)[C@@H]1CCC(C)=C[C@H]1c1c(O)cc(CCCCC)cc1O` [CBD, cannabidiol, reference compound], the solubility ([1]; phosphate buffered saline, pH 7.4, aqueous buffer, thermodynamic from solid) was ≤ 0.0005 mM, the Thermodynamic solubility [1] was “Below Detection Limit” and the “% of substrate remaining in solution” value ([2]; Acidic (pH 1.1), 24 h) was 63.90%. For the same compound, the “% of substrate remaining in solution” value ([2]; Alkaline (pH 12.5), 24 h) was 2.26%, the “% of substrate remaining in solution” value ([2]; Heat (60° c.), 24 h) was 72.76% and the “% of substrate remaining in solution” value ([2]; Oxidative (H2O2 3%), 24 h) was 70.56%. The “accumulation of degradation product THC” value ([2]; acidic and alkaline conditions, 24 h) was “degrades to THC”, the “percent remaining after 24 h exposure relative to a control at ambient conditions” value ([2]; 30° C.) was 2.26% and the “stability under stress conditions” value ([2]; all conditions tested (acidic, alkaline, oxidative, heat), 24 h) was “unstable under all conditions tested”. It also gave a t1/2 [3] of 3.77 min and a microsomal CLint at 1 μM ([3]; human, microsomes, pH 7.4) of 368 ± 0.684 µL/min/mg.
With `C=C(C)[C@@H]1CCC(C)=C[C@H]1c1c(O)cc(CCCCC)cc1O[C@@H]1O[C@H](CO)[C@@H](O)[C@H](O)[C@H]1O` [OB1, CBD-1′-O-β-D-glucoside] the “% accumulation of THC-1′-O-β-D-glucoside (OB20)” value ([2]; Acidic (pH 1.1), 24 h) was 1.61%, the “% of substrate remaining in solution” value ([2]; Acidic (pH 1.1), 24 h) was 80.02% and the “% of substrate remaining in solution” value ([2]; Alkaline (pH 12.5), 24 h) was 100.27%. The “% of substrate remaining in solution” value ([2]; Heat (60° c.), 24 h) was 84.35%, the “% of substrate remaining in solution” value ([2]; Oxidative (H2O2 3%), 24 h) was 92.98% and the “accumulation of degradation product THC-1′-O-β-D-glucoside (OB20)” value ([2]; acidic conditions (HCl, final pH 1.1), 30° C., 24 h) was “a small amount of THC-1′-O-β-D-glucoside (OB20) was detected”. For the same compound, the “percent remaining after 24 h exposure relative to a control at ambient conditions” value ([2]; 30° C.) was 100%, the “release of CBD aglycone (stability of the glucoside bond)” value ([2]; 24 h) was “no CBD aglycone was detected” and the CLint [3] was 1110 ± 0.312 μL/min/mg protein. It also gave a t1/2 [3] of 1.24 min.
For `C=C(C)[C@@H]1CCC(C)=C[C@H]1c1c(O[C@@H]2O[C@H](CO)[C@@H](O)[C@H](O)[C@H]2O)cc(CCCCC)cc1O[C@@H]1O[C@H](CO)[C@@H](O)[C@H](O)[C@H]1O` [OB6, CBD-1′-O-β-D-glucosyl-3′-O-β-D-glucoside], the Thermodynamic solubility [1] was 11.4 ± 0.75 mM, the “% of substrate remaining in solution” value ([2]; Acidic (pH 1.1), 24 h) was 91.90% and the “% of substrate remaining in solution” value ([2]; Alkaline (pH 12.5), 24 h) was 100.62%. The “% of substrate remaining in solution” value ([2]; Heat (60° c.), 24 h) was 80.79%, the “% of substrate remaining in solution” value ([2]; Oxidative (H2O2 3%), 24 h) was 74.98% and the “percent remaining after 24 h exposure relative to a control at ambient conditions” value ([2]; 30° C.) was 100%. For the same compound, the “release of CBD aglycone (stability of the glucoside bond)” value ([2]; 24 h) was “no CBD aglycone was detected”, the “accumulation of THC or THC-glucoside” value ([2]; any of the conditions (acidic, alkaline, oxidative, heat), 24 h) was “no THC or THC-glucoside was detected” and the “decrease in intrinsic clearance versus CBD” value ([3]; human liver microsomes) was 50 fold. For the same compound, the “increase in half-life versus CBD” value ([3]; human liver microsomes) was 50 fold, the CLint [3] was 7.39 ± 1.32 μL/min/mg protein and the t1/2 [3] was 188 min.

Source: US20220290200A1, “GENETICALLY MODIFIED HOST CELLS PRODUCING GLYCOSYLATED CANNABINOIDS” (OCTARINE BIO IVS, priority 2019, published 2022)
